The first assay is described as follows: Antagonist activity at P2Y1 receptor in platelet-enriched human plasma assessed as 10 uM ADP-induced platelet aggregation preincubated for 1 min followed by ADP induction measured at 5 mins by aggregometric analysis.
For `CC(C)(C)CN1CCCC2(C1)CN(c1ccccc1NC(=O)Nc1ccc(OC(F)(F)F)cc1)c1ccccc12` (stereo not drawn), the IC50 is above 40 µM.
Regarding `COC(=O)N1CCC2(CC1)CN(c1ccccc1NC(=O)Nc1ccc(OC(F)(F)F)cc1)c1ccccc12`, the IC50 is 54.2 µM.
Same read-out and setting: with `CC(C)(C)CN1CCC2(C1)CN(c1ccccc1NC(=O)Nc1ccc(OC(F)(F)F)cc1)c1ccccc12` (stereo not drawn) the figure was 18.5 µM; with `CC(C)N1CCC2(CC1)CN(c1ccccc1NC(=O)Nc1ccc(OC(F)(F)F)cc1)c1ccccc12`, 29.2 µM; with `CC(C)(C)CN1CCC2(CC1)CN(c1ccccc1NC(=O)Nc1ccc(OC(F)(F)F)cc1)c1cccnc12`, 15.1 µM.
Same read-out and setting: with `CC(C)(C)CN1CCC2(CC1)CN(c1ccccc1NC(=O)Nc1ccc(OC(F)(F)F)cc1)c1ncccc12` the figure was above 40 µM; with `CC(C)(C)CN1CCC2(CC1)CCN(c1ccccc1NC(=O)Nc1ccc(OC(F)(F)F)cc1)c1ccccc12`, 6.3 µM; with `CC(C)(C)CN1CCC2(CC1)CN(c1ccccc1NC(=O)Nc1ccc(OC(F)(F)F)cc1)c1ccccc12`, 4.9 µM.
For `CC(C)CN1CCC2(CC1)CN(c1ccccc1NC(=O)Nc1ccc(OC(F)(F)F)cc1)c1ccccc12`, the concentration for half-maximal inhibition (IC50) turned out to be 8.8 µM.
On the same count and under the same terms, with `CC(C)(C)CN1CCC2(CC1)CN(c1ccccc1NC(=O)Nc1ccc(OC(F)(F)F)cc1)c1ccncc12` the figure was above 40 µM; with `O=C(Nc1ccc(OC(F)(F)F)cc1)Nc1ccccc1N1CC2(CCN(Cc3ccccc3)CC2)c2ccccc21`, 18.6 µM.
Take `CC(C)(C)CN1CCC2(CC1)CN(c1ccccc1NC(=O)Nc1ccc(OC(F)(F)F)cc1)c1cnccc12`: the IC50 was 4 µM.

A further assay in a line: Antagonist activity at P2Y1 receptor in platelet-enriched human plasma assessed as 2.5 uM ADP-induced platelet aggregation preincubated for 1 min followed by ADP induction measured at 5 mins by aggregometric analysis.
As to `O=C(Nc1ccc(OC(F)(F)F)cc1)Nc1ccccc1N1CCOc2ccccc21`, the IC50 was above 10 µM.
`O=C(Nc1ccc(OC(F)(F)F)cc1)Nc1ccccc1N1CC2(CCN(C(=O)OCc3ccccc3)CC2)c2ccccc21`: the 50% inhibitory concentration (IC50) is above 10 µM.
Same read-out and setting: for `O=C(Nc1ccc(OC(F)(F)F)cc1)Nc1ccccc1N1CC2(CCCC2)c2ccccc21` the value was 2.4 µM; for `COC(=O)N1CCC2(CC1)CN(c1ccccc1NC(=O)Nc1ccc(OC(F)(F)F)cc1)c1ccccc12`, 5.8 µM.
For the compound `CC(C)N1CCC2(CC1)CN(c1ccccc1NC(=O)Nc1ccc(OC(F)(F)F)cc1)c1ccccc12`, the IC50 amounted to 4.7 µM.
Same read-out and setting: with `CC1(C)CN(c2ncccc2NC(=O)Nc2ccc(OC(F)(F)F)cc2)c2ccccc21` the figure was above 10 µM; with `CC1CCN(c2ccccc2NC(=O)Nc2ccc(OC(F)(F)F)cc2)c2ccccc21` (stereo not drawn), above 10 µM; with `O=C(Nc1ccc(OC(F)(F)F)cc1)Nc1ccccc1N1CC2(CC2)c2ccccc21`, above 10 µM.
As to `CC1(C)CCN(c2ncccc2NC(=O)Nc2ccc(OC(F)(F)F)cc2)c2ccccc21`, the concentration for half-maximal inhibition (IC50) is 11.1 µM.
Consider `O=C(Nc1ccc(OC(F)(F)F)cc1)Nc1ccccc1N1CC2(CCCCC2)c2ccccc21`, for which the IC50 was 2 µM.
Still for that read-out and setting: for `CC1(C)CN(c2ccccc2NC(=O)Nc2ccc(OC(F)(F)F)cc2)c2ccccc2O1` the value was above 10 µM.
As to `CC1(C)CCN(c2ccccc2NC(=O)Nc2ccc(OC(F)(F)F)cc2)c2ccccc21`, the IC50 stood at 2.2 µM.
Regarding `CN1CCN(c2ccccc2NC(=O)Nc2ccc(OC(F)(F)F)cc2)c2ccccc21`, the concentration for half-maximal inhibition (IC50) is above 10 µM.
With `CC(C)NC(=O)N1CCC2(CC1)CN(c1ccccc1NC(=O)Nc1ccc(OC(F)(F)F)cc1)c1ccccc12`, the IC50 is above 10 µM.
The same measure, in the same setting: for `CC(C)(C)CN1CCC2(CC1)CN(c1ccccc1NC(=O)Nc1ccc(OC(F)(F)F)cc1)c1ccccc12` the value was 0.67 µM; for `CC(C)CN1CCC2(CC1)CN(c1ccccc1NC(=O)Nc1ccc(OC(F)(F)F)cc1)c1ccccc12`, 2.2 µM.
With `O=C(Nc1ccc(OC(F)(F)F)cc1)Nc1ccccc1N1CC2(CCN(Cc3ccccc3)CC2)c2ccccc21`, the IC50 came to 3.3 µM.
On the same count and under the same terms, for `COCCN1CCC2(CC1)CN(c1ccccc1NC(=O)Nc1ccc(OC(F)(F)F)cc1)c1ccccc12` the value was 25.4 µM.
Still for that read-out and setting: for `CC1(C)CN(c2ccccc2NC(=O)Nc2ccc(OC(F)(F)F)cc2)c2ccccc21` the value was 8.5 µM; for `O=C(Nc1ccc(OC(F)(F)F)cc1)Nc1ccccc1N1CC2(CCC2)c2ccccc21`, 4.1 µM; for `O=C(Nc1ccc(OC(F)(F)F)cc1)Nc1ccccc1N1CCCc2ccccc21`, above 10 µM.

Usually IC50 stands for the concentration that inhibits the measured activity by half.

The values above are taken from BindingDB's records for doi:10.1021/jm4013906 (Bristol-Myers Squibb, 2013).
